Where two headings read alike, the source gives them in different places.

Data set [1] in a line: Cellular cytotoxicity assay (resazurin). The format is cell-based. The note with it: human. As to the method:
(§1) The phenotypic cellular assays were conducted as previously reported by Blaazer et al. (Blaazer et al., [2018]).
For the cellular cytotoxicity assay, MRC-5 SV2 cells, originally from a human diploid lung cell line, were cultivated in MEM supplemented with L-glutamine (20 mM), 16.5 mM sodium hydrogen carbonate and 5% FCS. For the assay, 10^4 MRC-5 cells/well were seeded onto the test plates containing the pre-diluted sample and incubated at 37°C and 5% CO2 for 72 h. Cell viability was assessed fluorimetrically 4 h after the addition of resazurin. Fluorescence was measured (excitation 550 nm, emission 590 nm) and the results were expressed as percentage reduction in cell viability compared to controls.
(Resazurin is reduced to fluorescent resorufin, in cell work by metabolically active cells.)

For data set [2], the system named is T.b. brucei Squib-427 strain. In words: Antitrypanosomal phenotypic cellular assay (resazurin). As to conditions: Trypanosoma brucei; in vitro, 72 h, mean ± S.E.M. The format is cell-based. As for the experimental part: as §1
For the antitrypanosomal assay, T.b. brucei Squib-427 strain (suramin-sensitive) was cultured at 37°C and 5% CO2 in HMI-9 medium supplemented with 10% fetal calf serum (FCS). Approximately 1.5 × 10^4 trypomastigotes were added to each well and parasite growth was assessed after 72 h at 37°C by adding resazurin. Viability was assessed fluorimetrically 24 h after addition of resazurin. Fluorescence was measured (excitation 550 nm, emission 590 nm) and the results were expressed as percentage reduction in viability compared to control.

Data set [3] deals with T1, TbrPDEB1 (Trypanosoma brucei, UniProt Q8WQX9).
T1 construct: The TbrPDEB1 catalytic domain phosphodiesterase activity assays were conducted based on a method reported by Sijm et al
T1 sequence (Q8WQX9 565-918 limits assumed): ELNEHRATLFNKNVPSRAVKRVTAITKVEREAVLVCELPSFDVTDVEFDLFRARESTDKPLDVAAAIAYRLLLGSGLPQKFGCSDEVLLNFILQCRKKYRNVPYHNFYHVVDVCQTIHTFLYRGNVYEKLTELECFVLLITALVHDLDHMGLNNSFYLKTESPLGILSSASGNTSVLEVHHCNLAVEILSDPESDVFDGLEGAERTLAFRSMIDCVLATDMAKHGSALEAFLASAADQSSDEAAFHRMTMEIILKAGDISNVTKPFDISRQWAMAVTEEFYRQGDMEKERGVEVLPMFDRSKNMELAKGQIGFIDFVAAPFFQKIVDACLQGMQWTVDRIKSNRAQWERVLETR
In words: TbrPDEB1 catalytic domain phosphodiesterase activity assay (PDELight HTS cAMP kit). The format is biochemical. As to the method: The TbrPDEB1 catalytic domain phosphodiesterase activity assays were conducted based on a method reported by Sijm et al. ([2019]) with minor adaptations (Sijm et al., [2019]). The PDELight™ HTS cAMP phosphodiesterase Kit (Lonza, Walkersville, USA) was performed at 25°C in non-binding, low volume 384-well plates (Corning, Kennebunk, ME, USA). […] Single concentration measurements were made at 10 μM inhibitor concentration (triplo measurements/assay, n = 2). Dose-response curves were made in the range 100 μM−10 pM (triplo measurements/assay, n = 3). Compounds were diluted in DMSO (final in-test concentration 1%). Inhibitor dilutions (2.5 μL) were transferred to the 384-well plates, 2.5 μL of PDE in stimulation buffer was added and mixed, 5 μL of cAMP (at 2 × Km up to 20 μM) added and the assay mixture was incubated for 20 min at 300 rpm. […] Then, 5 μL of Lonza Detection reagent (diluted to 80% with reaction buffer) was added and the reaction incubated for 10 min at 300 rpm. Luminescence was read with a Victor3 luminometer using a 0.1 s/well program.
The Ki values of the inhibitors analyzed are represented as the mean of at least three independent experiments with the associated standard error of the mean (S.E.M.).

Data set [4] concerns TbrPDEB2. Details: method as in earlier work. The note with it: ref De Koning et al., 2012, Orrling et al., Veerman et al., 2016; cited from earlier work.
Data set [5] concerns hPDE4B1. Details: method as in Blaazer et al. (2018). As to conditions: ref Blaazer et al. (2018), cited from earlier work.
The subject of data set [6] is MRC-5 SV2 cells. Also noted: method as in Blaazer et al. (2018). The note with it: ref Blaazer et al. (2018); cited from earlier work.
Data set [7] concerns the target T1, TbrPDEB1. The note with it: ref Blaazer et al. (2018); cited from earlier work.
Data set [8] relates to T.b. brucei Squib-427 strain. Also noted: method as in Blaazer et al. (2018). As to conditions: in vitro; ref Blaazer et al. (2018); cited from earlier work.

As for `COc1ccc(C2=NN(C(C)C)C(=O)[C@@H]3CC=CC[C@H]23)cc1Oc1cccc(C(=O)NCc2ccco2)n1` (relative stereo) [3w, N-(Furan-2-ylmethyl)-6-(5-(cis-3-isopropyl-4-oxo-3,4,4a,5,8,8a-hexahydrophthalazin-1-yl)-2-methoxyphenoxy)picolinamide], the CC50 at 72 h in data set [1] is > 64 µM. The molecule further yielded an IC50 in data set [2] of 25 ± 20 µM. The molecule further gave a Ki in data set [3] (full dose-response, mean ± S.E.M.) of 1 ± 0.2 µM. Besides, the inhibition at 10 µM in data set [3] (single point assay at 10 μM inhibitor, read-out: TbrPDEB1 (% inh.)) is > 50%.
As to `COc1ccc(C2=NN(C3CCCCCC3)C(=O)[C@@H]3CC=CC[C@H]23)cc1OCCCCOc1ccc(-c2nn[nH]n2)cc1` [NPD-001], the IC50 in data set [4] is 0.0124 µM.
On to `COc1ccc(C2=NN(C(C)C)C(=O)C3CC=CCC23)cc1-c1ccc(C(=O)NCC(N)=O)cc1` (stereo not shown) [compound 1], for which, in data set [5] (from Ki values), the “selectivity for TbrPDEB1 over hPDE4” value is reported as “more than 10 fold”. Moreover, the Ki in data set [5] (hPDE4B1 in Figure 1, read-out: hPDE4 Ki) is 1.9 µM; in data set [7], 0.1 µM. In data set [6], the CC50 was 35 µM. Moreover, the IC50 in data set [8] was 6.3 µM.

One may read the CC50 as the concentration giving 50% cytotoxicity. One may read the IC50 as the concentration needed to halve the response being measured. The term Ki denotes the dissociation constant of the complex between target and ligand, obtained from inhibition or displacement.

The values are drawn from paper PMC7859335, “Discovery of Diaryl Ether Substituted Tetrahydrophthalazinones as TbrPDEB1 Inhibitors Following Structure-Based Virtual Screening” (Frontiers in Chemistry, 2021).
